Structures can show the parent of a compound that is named as a salt.
Target: T1, TAFIa (Homo sapiens, UniProt Q96IY4)
T1 construct: purchased Enzyme Research Laboratories
T1 sequence (Q96IY4 115-423): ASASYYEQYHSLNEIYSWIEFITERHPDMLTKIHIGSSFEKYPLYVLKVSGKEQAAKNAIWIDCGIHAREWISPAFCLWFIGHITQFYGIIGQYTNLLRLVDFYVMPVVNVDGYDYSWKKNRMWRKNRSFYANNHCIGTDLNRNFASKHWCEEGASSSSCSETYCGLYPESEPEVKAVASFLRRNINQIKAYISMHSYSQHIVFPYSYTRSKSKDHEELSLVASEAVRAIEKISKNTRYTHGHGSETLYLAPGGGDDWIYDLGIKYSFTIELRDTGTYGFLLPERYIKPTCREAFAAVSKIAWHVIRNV
Assay: TAFIa inhibition test (Hip-Arg substrate, absorbance at 405 nm)
Assay type: biochemical
Settings: TAFI activated with thrombin/thrombomodulin, 40 minutes at room temperature, read-out: TAFIa inhibitory activity IC50
Procedure: Test 1 [TAFIa Inhibition Test]
Compounds of the present invention were measured for their TAFIa inhibitory activity as follows based on the method described in Thromb. Haemost. 79, 371-377 (1998).
(a) Preparation of TAFIa Solution
To 450 μl of TAFI (the product of Enzyme Research Laboratories whose concentration was adjusted to 18 μg/ml with buffer A: 100 mM Tris-HCl, pH 7.4), 45 μl of a thrombomodulin solution (a rabbit lung derived thrombomodulin produced by American Diagnostica whose concentration was adjusted to 1 μg/ml with buffer B: 50 mM Tris-HCl, pH 7.5, containing 0.15 M NaCl) and 45 μl of a thrombin solution (a freeze-dried human plasma derived thrombin produced by Sigma and dissolved in water to have a concentration of 30 μU/ml) were added and the mixture was left to stand at room temperature for 25 minutes.
(b) Method of Measuring TAFIa Inhibitory Activity […]
Subsequently, a color former (1% cyanuric chloride in 1,4-dioxane) was added in an amount of 50 μl to each well and the plate was left to stand for 3 minutes at room temperature, then absorbance at 405 nm was measured with a microplate reader (Spectramax M2 of Molecular Devices). […]
For two compounds of the present invention, the above test was conducted and on the basis of the results of measurements, TAFIa inhibitory activity was calculated to give the results shown in Table 2.

Compound | IC50 [nM]
N[C@H]1CCN([C@@H](Cc2ncn3c2CCc2ccccc2-3)C(=O)O)C1 [Compound 1, (2S)-2-[(3S)-3-aminopyrrolidin-1-yl]-3-(4,5-dihydroimidazo[1,5-a]quinolin-3-yl)propanoic acid trihydrochloride] | 36
Cc1ccc2c(c1)CCc1c(C[C@@H](C(=O)O)N3CC[C@H](N)C3)ncn1-2 [Compound 2, (2S)-2-[(3S)-3-aminopyrrolidin-1-yl]-3-(7-methyl-4,5-dihydroimidazo[1,5-a]quinolin-3-yl)propanoic acid trihydrochloride] | 23
